Measurements published in US10898547B2, “Method of treatment of breast or colon cancer by administering muscle stimulated myokines” (Unicorn Therapeutics, LLC, priority 2016, dated 2021).

Tests used:
Assay type in all cases: cell-based
HepG2 [1] = assay: Western blot of metabolic markers (pAMPK, pAKT, pACC) in HepG2 cells; parameters: dose or concentration left out as unconfirmed; settings: HepG2, sorafenib (FIG. 6A)
HepG2 [2] = assay: WST cellular proliferation assay in HepG2 HCC cells; settings: 24-48 hrs, sorafenib 1, 2 and 5 micromolar
Huh7 = assay: WST cellular proliferation assay in Huh7 HCC cells; settings: 24-48 hrs, sorafenib 1, 2 and 5 micromolar
HT-29 = assay: 5′FU dosage determination in HT-29 cells, 96-well plate; settings: HT-29, after 48 hrs

In the case of CNC(=O)c1cc(Oc2ccc(NC(=O)Nc3ccc(Cl)c(C(F)(F)F)c3)cc2)ccn1 [sorafenib], the pAMPK expression (HepG2 [1]) is reported as “increase”, the cellular proliferation (HepG2 [2]) is reported as “decrease” and the cellular proliferation (Huh7) is reported as “decrease”.
In the case of O=c1[nH]cc(F)c(=O)[nH]1 [5′FU, 5-fluorouracil], the “concentration showing the best effect without suggestion of cytotoxicity” value (HT-29) is reported as 25 µM.
